Data: patent publication US10053497B2, “Therapeutic epitopes and uses thereof” (OXFORD UNIVERSITY INNOVATION LIMITED, priority 2002, dated 2018)
Several values for one entry are separate records, joined by “and”; a condition that tells them apart may be missing. Equal entries are not always repeated.

Tests used:
[1] = system: PBMC from coeliac volunteers; assay: Antagonism of A-gliadin 57-73 QE65 IFNgamma ELISPOT response (simultaneous addition of peptide); format: cell-based, human; details: for % Inhibit of A-gliadin 57-73 QE65 interferon gamma ELISpot response by naturally occurring polymorphisms: peptide 50 μg/ml plus A-gliadin 57-73 QE65 10 μg/ml; for % Inhibit. of A-gliadin 57-73 QE65 interferon gamma ELISPOT response: variant 50 μg/ml plus A-gliadin 57-73 QE65 10 μg/ml, n=5
Procedure: Simultaneous addition of peptide (50 μg/ml) or buffer and A-gliadin 57-73 QE65 (SEQ ID NO:2) (10 μg/ml) in IFNgamma ELISPOT using PBMC from coeliac volunteers 6 days after commencing 3 day gluten challenge (n=5). Results were expressed as response with peptide plus A-G 57-73 QE65 (mean of duplicates) as % response with buffer plus A-G 57-73 QE65 (mean of 20 replicates). (See Table 9).

[2] = system: PBMC from coeliac disease subjects; assay: IFNγ ELISPOT with PBMC of coeliac disease subjects after bread/gluten challenge (agonist bioactivity of peptides); format: cell-based, human; details: for Bioactivity % of unmodified A-gliadin 57-73 QE65 (G) / % agonist. (agonist activity compared to A-gliadin 57-73 QE65): 50 mcg/ml; for Bioactivity % of unmodified A-gliadin 57-73 QE65 (G): PBMC from 8 subjects, blank 7.1%; for % agonist. (agonist activity compared to A-gliadin 57-73 QE65): Table 9
[3] = A-gliadin 57-73 with the named amino acid at position 65, 50 μg/ml, 3 subjects, day 6

| Molecule | % Inhibit of A-gliadin 57-73 QE65 interferon gamma ELISpot response by naturally occurring polymorphisms [1] | Bioactivity % of unmodified A-gliadin 57-73 QE65 (G) [2] | % agonist. (agonist activity compared to A-gliadin 57-73 QE65) [2] | Mean IFNγ ELISPOT response relative to the immunodominant epitope (Glu65) ([2]; listed as Lysine) | % Inhibit. of A-gliadin 57-73 QE65 interferon gamma ELISPOT response [1] | Mean IFNγ ELISPOT response relative to the immunodominant epitope (Glu65) ([2]; A-gliadin 57-73 with the named amino acid at position 65, 50 μg/ml, 3 subjects, day 6, listed as Histidine) | Mean IFNγ ELISPOT response relative to the immunodominant epitope (Glu65) [2, 3] |
| --- | --- | --- | --- | --- | --- | --- | --- |
| QLQPFPQPELSYSQPQP [Gil α 3-5 57-73 QE65] | 7% | – | – | – | – | – | – |
| NCCCC[C@H](N)C(=O)O [Peptide K65] | – | 8% | 8% | 4% | 15% | – | – |
| QLQPFLQPELPYSQPQP [Q41509 77-93 QE85] | 11% and 6% | – | – | – | – | – | – |
| N[C@@H](Cc1c[nH]cn1)C(=O)O [Peptide H65] | – | 26% | 16% | – | 20% | 8% | – |
| QPQPFPPPELPYPQTQP [Gli α 1, 6 58-74 QE66] | 11% | – | – | – | – | – | – |
| PQPQPFPPELPYPQPQS [P04725 82-98 QE90] | 19% | – | – | – | – | – | – |
| CC[C@H](C)[C@H](N)C(=O)O [Peptide I65] | – | 21% | 21% | – | 17% | – | 14% |
| C[C@@H](O)[C@H](N)C(=O)O [Peptide T65] | – | 19% | 19% | – | 28% | – | 55% |
